In US7736856B2, “Method of screening drug with the use of 67 kDa laminin receptor and drug obtained thereby” (Kyushu TLO Company, Limited, priority 2003, dated 2010):

What was measured:
[1] = test system: 67LR forced expression cells (A549); test: Cell growth test (cell count, Tripanblue staining) on 67LR transient expression A549 cells; format: cell-based, human; settings: for number of the cells / growth inhibiting effect (influence of 67LR gene introduction) / survival rate (influence of 67LR gene introduction): 5 μM, 0.5 μg pTARGET-hLamininR in A549 cells; for survival rate (influence of 67LR gene introduction): Tripanblue staining
Description: The 67LR expression vector constructed (pTARGET-hLamininR) was introduced into A549 cells, using FuGENE™ 6 Transfection Reagent. Its details are described below. The cells were inoculated into a 10% FBS-ERDF medium at 1×10^4 cells/ml. By keeping at 37° C. for 24 hours, the cells were adhered to the medium. Next, a fresh ERDF medium was put into a tube, and FuGENE™ 6 (three times the amount of the gene) was directly added and gently mixed. Next, pTARGET-hLamininR was added and gently mixed, and this was kept at room temperature for 30 minutes. This was added to the medium, and kept at 37° C. for 48 hours. The cells were washed with a medium, and then the medium was changed with a fresh one.
(§1) Various components of various concentrations were added to the 67LR transient expression cells, and treated in a 5% FBS-containing ERDF medium at 37° C. for 48 hours. After the treatment, the number of the cells was counted, and the survival rate of the cells was determined according to a Tripanblue staining method.
Using FuGENE™ 6 Transfection Reagent, a 67LR expression vector (pTARGET-hLamininR) was introduced into A549 cells according to the method mentioned below. The cells were inoculated at 1×10^4 cells/ml (10% FBS-ERDF medium). After 24 hours, a fresh ERDF medium was put into a tube, and FuGENE™ 6 (three times the amount of the gene) was directly added and gently mixed. Next, pTARGET-hLamininR of varying concentrations were added and gently mixed, and this was kept at room temperature for 30 minutes. This was added to the medium, and was continuously cultured at 37° C. for 48 hours. EGCG of various concentrations were added to the 67LR transient expression cells, and treated with a 5% FBS-containing ERDF medium at 37° C. for 48 hours. After the treatment, the number of the cells was counted and the survival rate thereof was determined according to a Tripanblue staining method.
First, the influence of the substances on the growth of 67LR forced expression cells was investigated. Similarly to the above, 0.5 μg of pTARGET-hLamininR was introduced into A549 cells by the lipofection method, followed by cultivation at 37° C. for 48 hours. Then, the cells were treated with various tea components each having a final concentration of 5 μM. The cells were further cultivated at 37° C. for 48 hours, and then the number of the cells and the survival rate thereof were determined.

[2] = molecular target: T1, 67LR forced expression cells (A549 with 67LR expression vector) (Homo sapiens, UniProt P08865); test: Binding to 67LR forced expression cells by surface plasmon resonance sensor; settings: for change of cell binding in 67LR forced expression cells: surface plasmon resonance biosensor, 5 μM; for angle change (binding amount): EGCG 5 μM
T1 construct: expressed in transfected cells; host or cells: A549 cells, transient transfection with pTARGET-hLamininR (FuGENE 6)
Description: (§2) The binding of various component (5 μM) to the cells was determined by using a surface plasmon resonance sensor SPR670 (Nippon Laser and Electronic Lab., Nagoya, Japan). For the measurement, the cells were fixed on a gold membrane (Nippon Laser and Electronic Lab.) according to a standard fixation method for protein. Precisely, a gold membrane was dipped in a solution in ethanol of […] of 4,4-dithiodibutyric acid, DDA (Tokyo Kasei Kogyo Co., Ltd., Tokyo, Japan) (this was prepared by dissolving 2.38 mg of DDA in 10 ml of 99% ethanol followed by diluting it with ethanol to 1/100) in such a manner that its gold surface could face upward, and gently stirred at room temperature for 30 minutes. Next, this was washed twice with ethanol with no pressure applied to the gold surface to thereby introduce a self-assembly membrane (SA membrane). 25 mg of a water-soluble carbodiimide, EDC (Wako Pure Chemicals) was dissolved in 1 ml of ultra-pure water; and 15 mg of N-hydroxysuccinimide, NHS (Wako Pure Chemicals) was dissolved in 9 ml of 1,4-dioxane (Nacalai Tesque, Inc.). These solutions were mixed, and the SA membrane-processed gold membrane was dipped into the mixture, and gently stirred at room temperature for 10 minutes. 10 ml of ultra-pure water was added, and further stirred at room temperature for 5 minutes. This was washed twice with ultra-pure water with no water pressure applied to the gold surface thereof, then dried (in air), and mounted on a cartridge. The cells were suspended to a density of 3×10^5 cells/ml (in a flow buffer, PBS), and 20 μl of the cell suspension was dropwise applied onto the gold membrane and kept at room temperature for 30 minutes so as to fix the cells onto the membrane. Next, a green tea catechin diluted with PBS to have a concentration of 1, 10, 25 or 50 μM was applied thereto, and the change in the surface plasmon resonance angle was determined so as to monitor its binding to the cells.
(§3) 67LR is a membrane protein existing in a cell membrane, and the fact that the EGCG effect was enhanced in the cells with the gene expression vector introduced therein would be due to the increase in the EGCG binding. Accordingly, the EGCG binding to the cells was determined by the sue of a surface plasmon resonance sensor. EGCG was used at 5 μM.

A549 cells = test: Binding to A549 cells (empty vector / parent) by surface plasmon resonance sensor; parameters: species or system human; settings: for cell binding to A549 cells: surface plasmon resonance biosensor, 5 μM
Description: as §2, §3

67LR on cell surfaces = 67LR on cell surfaces (Homo sapiens, UniProt P08865); test: Flow cytometry: influence of EGCG treatment on detection of cell surface 67LR by anti-67LR antibody; format: binding
Description: It is known that 67LR is expressed on cell surfaces. Therefore, 67LR expressed on the surfaces of the cells was detected through flow cytometry analysis using an anti-human laminin receptor (LR) antibody. The cells were collected, and using a 1.5-ml Eppendorf tube, they were added to 100 μl, as a whole, of 1% FBS-PBS at 1×10^6 cells therein. A primary antibody, anti-human LR antibody was added to it to have a final concentration of 10 μg/ml. This was incubated at 4° C. for 30 minutes, and then washed once with PBS. Next, a secondary antibody, anti-mouse IgM FITC-labeled antibody capable of recognizing an isotype of LR antibody was added to 25 μl, as a whole, of 1% FBS-PBS so as to have a final concentration of 12.5 μg/ml. This was incubated at 4° C. for 30 minutes, then washed twice with PBS, and re-suspended in PBS, and analyzed with a flow cytometer. A negative control IgM antibody of the same concentration (10 μg/ml) was reacted in the same manner as herein. The 67LR expression amount on the cell surfaces was indicated by the center value of the fluorescent intensity of LR.
For the purpose of investigating the influence of EGCG treatment on the cell surface expression of 67LR, the cells were treated with an EGCG-added 1% FBS-PBS having a final EGCG concentration of 50 μM, and then kept at 37° C. for 30 minutes. This was washed once with PBS. Then, this was treated in the same manner as above with the primary antibody and others, and analyzed. As a control, the cells were treated with an EGCG-free 1% FBS-PBS.

[3] = molecular target: T2, 67LR forced expression cells (Homo sapiens, UniProt P08865); test: Binding competition test of EGCG and anti-67LR antibody (surface plasmon resonance sensor); settings: cells pretreated with anti-67LR antibody 10 μg/ml, 37° C., 30 minutes
T2 construct: expressed in transfected cells; host or cells: A549 cells, transient transfection with pTARGET-hLamininR (FuGENE 6)
Description: as §2, with “These solutions were mixed, and the SA membrane-processed gold membrane was dipped into the mixture, and gently stirred at room temperature for 10 minutes. 10 ml of ultra-pure water was added, and further stirred at room temperature for 5 minutes. This was washed twice with ultra-pure water with no water pressure applied to the gold surface thereof, then dried (in air), and mounted on a cartridge. The cells were suspended to a density of 3×10^5 cells/ml (in a flow buffer, PBS), and 20 μl of the cell suspension was dropwise applied onto the gold membrane and kept at room temperature for 30 minutes so as to fix the cells onto the membrane.” left out, “cells. […]” for “cells.”

[4] = molecular target: T2, 67LR forced expression cells; test: Growth inhibition by EGCG after anti-67LR antibody pretreatment of 67LR forced expression cells; format: cell-based
Description: as §1
Regarding […] pretreatment, an anti-67LR antibody having a final concentration of 10 μg/ml (1% FBS-containing ERDF medium) was treated at 37° C. for 30 minutes, and then EGCG treatment was carried out so as to investigate the influence thereof on the antibody-treatment cells. As a negative control, the same treatment was carried out with mouse IgM.

Row | Compound | number of the cells / growth inhibiting effect (influence of 67LR gene introduction) ([1]; 48 hours) | survival rate (influence of 67LR gene introduction) ([1]; 48 hours) | change of cell binding in 67LR forced expression cells [2] | cell binding to A549 cells (A549 cells) | also measured
1 | catechin | no influence | no influence | no change | no binding | –
2 | COc1cc(C(=O)O[C@@H]2Cc3c(O)cc(O)cc3O[C@@H]2c2cc(O)c(O)c(O)c2)cc(O)c1O [EGCG3″Me, epigallocatechin-3-(3-O-methyl)-gallate] | increase in the growth inhibiting effect | – | cell binding increased | showed cell binding though not comparable to that of EGCG | –
3 | epigallocatechin-3-O-gallate [EGCG] | increase in the growth inhibiting effect | – | – | – | growth inhibiting activity ([1]; EGCG 0.1 μM, 67LR forced expression cells): showed its growth inhibiting activity; cell growth inhibition ([1]; EGCG of various concentrations, 67LR transiently expressed A549 cells, 5% FBS ERDF, 37° C., 48 hours): concentration-dependent cell growth inhibition was observed; cell growth inhibition versus 67LR gene amount introduced ([1]; pTARGET-hLamininR of varying concentrations, EGCG, 48 hours): in proportion to the 67LR gene amount introduced into the cells, cell growth inhibition was also observed; angle change (binding amount) ([2]; cells with 0.25 μg of 67LR expression vector): a great increase in the angle; angle change (binding amount) ([2]; cells with 0.5 μg of 67LR expression vector): a further greater increase in the angle; angle change (binding amount) (A549 cells; EGCG 5 μM, A549 cells with empty vector): Only a little angle change; apparent 67LR expression detected by anti-67LR antibody after EGCG (67LR on cell surfaces; EGCG 50 μM before antibody, 67LR-introduced cells): it was the same; apparent 67LR expression detected by anti-67LR antibody after EGCG (67LR on cell surfaces; EGCG 50 μM before antibody, cells with empty vector): The same phenomenon was found; apparent 67LR expression detected by anti-67LR antibody after EGCG (67LR on cell surfaces; EGCG 50 μM, 37° C., 30 minutes before antibody, control A549 cells): apparently disappeared; EGCG binding amount (angle change) [3]: reduction; EGCG binding speed [3]: reduction; survival rate ([4]; EGCG with or without antibody pretreatment, Tripanblue staining): no influence on the survival rate was found; growth inhibiting activity after antibody treatment ([4]; anti-67LR antibody treatment before EGCG): the growth inhibiting activity was lost
4 | O=c1c(O)c(-c2ccc(O)c(O)c2)oc2cc(O)cc(O)c12 [quercetin] | no influence | no influence | no change | did not show cell binding | –
5 | Oc1cc(O)c2c(c1)O[C@H](c1cc(O)c(O)c(O)c1)[C@H](O)C2 [EGC, epigallocatechin] | no influence | no influence | no change | no binding | –
6 | O=C(O[C@@H]1Cc2c(O)cc(O)cc2O[C@@H]1c1ccc(O)c(O)c1)c1cc(O)c(O)c(O)c1 [ECG, epicatechin-3-O-gallate] | increase in the growth inhibiting effect | – | cell binding increased | showed cell binding though not comparable to that of EGCG | –
7 | Cn1c(=O)c2c(ncn2C)n(C)c1=O [caffeine, Caffeine] | no influence | – | no change | did not show cell binding | –
